Measured values as given in PubChem BioAssay (NCI).
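Each compound was tested at five concentrations against cells in 96-well plates for 48 hours. TGI is the concentration that stops growth completely.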

Key:
Assay in all cases: NCI anticancer screen, dose series, 48 h
[1] = tested on: K-562 leukemia
[2] = tested on: DMS 114 small cell lung
[3] = tested on: KM20L2 colon
[4] = tested on: IGROV1 ovarian
[5] = tested on: SK-MEL-2 melanoma
[6] = tested on: SF-539 CNS
[7] = tested on: SNB-78 CNS
[8] = tested on: A549 NSCLC
[9] = tested on: HOP-62 NSCLC
[10] = tested on: HCT-116 colon
[11] = tested on: MDA-MB-435

Structure (SMILES) | TGI [1] | TGI [2] | TGI [3] | TGI [4] | TGI [5] | TGI [6] | TGI [7] | TGI [8] | TGI [9] | TGI [10] | TGI [11]
O=C(O)c1ccc(N=Nc2cc(S(=O)(=O)O)c3cccnc3c2O)cc1 | > 100 µM | > 100 µM | > 100 µM | > 100 µM | > 100 µM | > 100 µM | > 100 µM | > 100 µM | > 100 µM | > 100 µM | –
C[C@H]1COC2(c3ccccc3)CCC(=O)N12 (stereo partly specified) | > 100 µM | > 100 µM | > 100 µM | > 100 µM | > 100 µM | > 100 µM | > 100 µM | > 100 µM | > 100 µM | > 100 µM | –
CC(C)CC(CNC(Cc1ccc(Cl)cc1)C(N)=O)NC(=O)C(Cc1cnc[nH]1)NC(=O)CNC(=O)C(NC(=O)C(C)NC(=O)C(Cc1c[nH]c2ccccc12)NC(=O)C(CCC(=O)O)NC(=O)C(N)Cc1ccccc1)C(C)C (stereo unspecified) | > 133 µM | > 133 µM | > 133 µM | > 133 µM | > 133 µM | > 133 µM | > 133 µM | > 133 µM | > 133 µM | > 133 µM | –
COc1ccc(/C(Cl)=C(\C=O)c2ccc(OC)c(OC)c2)cc1OC | > 100 µM | > 100 µM | > 100 µM | > 100 µM | > 100 µM | > 100 µM | > 100 µM | > 100 µM | > 100 µM | > 100 µM | > 100 µM
O=C(CCc1ccccc1)On1nnc2ccccc2c1=O | > 100 µM | > 100 µM | > 100 µM | > 100 µM | > 100 µM | > 100 µM | > 100 µM | > 100 µM | > 100 µM | > 100 µM | –
Cc1[nH]c(=O)nc(CC(O)(c2ccccc2)c2ccccc2)c1-c1ccccc1 | > 100 µM | > 100 µM | > 100 µM | > 100 µM | > 100 µM | > 100 µM | > 100 µM | > 100 µM | > 100 µM | > 100 µM | –
